Source: patent US9187518B2, “Antiangiogenic brassinosteroid compounds” (CONSEJO NACIONAL DE INVESTIGACIONES CIENTIFICAS Y TECNICAS …, priority 2011, dated 2015)

Assays:
HUVEC cells = experiment: Capillary tube formation on a Matrigel; type: cell-based, human; settings: for formation of capillary tube like structures: 20 μM and 40 μM, comparative assay; for antiangiogenic activity in the tube-like formation assay in HUVEC cells: overall conclusion
Method: The formation of capillary tube like structures by HUVEC cells was analyzed on 24-well cell culture plates coated with an extracellular membrane matrix (Matrigel; BD Biosciences).
Matrigel was thawed at 4° C. Using precooled plates and tips, 100 μl/well of Matrigel was distributed and allowed to gelify at 37° C. for at least 30 min. Cells were seeded on the polymerized Matrigel (5 to 8×10^4 cells/well). The plate was incubated at 37° C., and tube formation was observed under a optic inverted microscope. Digital pictures were taken at different times with a camera. Tubular structures were quantified by manual counting of low power fields (25×) and inhibition percentage was expressed using untreated wells as 100%.
The formation of capillary tube-like structures by HUVEC cells was analyzed on 24-well cell culture plates coated with an extracellular membrane matrix (Matrigel; BD Biosciences). Matrigel was thawed at 4° C. Using precooled plates and tips, 100 μl/well of Matrigel was distributed and allowed to gelify at 37° C. for at least 30 min. Cells were seeded on the polymerized Matrigel (5 to 8×10^4 cells/well) in absence and presence of concentrations of 20 μM and 40 μM of each compound. The plate was incubated at 37° C., and tube formation was observed under an optic inverted microscope. Compound 1 was used as positive control.

TNF-α [1] = settings: LPS-stimulated macrophages in vitro; earlier work; cited from earlier work
IL-6 [2] = settings: human epithelial cells derived from ocular tissues; earlier work; cited from earlier work
HSV-1 = settings: murine model of HSV-1 corneal infection; previously reported; cited from earlier work
TNF-α [3] = settings: human epithelial cells derived from ocular tissues; earlier work; cited from earlier work
IL-6 [4] = experiment: IL-6 secretion in LPS-stimulated J774A.1 macrophages (ELISA); type: cell-based, murine; settings: J774A.1 stimulated with 100 ng/ml LPS 8 h, 40 μM
Method: J774A.1 cells grown in 24-well plates were incubated at 37° C. with 100 ng/ml of LPS, in duplicate. After 8 h, supernatants were harvested and murine IL-6 was quantified by commercial ELISA sets (BD OptEIA™, Becton Dickinson, USA) according to manufacturer instructions.

NF-κB p65 subunit = experiment: NF-κB p65 nuclear translocation in LPS-stimulated J774A.1 cells (IFI); type: cell-based, murine; settings: J774A.1 induced with LPS 8 h, 40 μM (LPS only 79.4±1.2)
Method: J774A.1 cells were grown on coverslips in 24-well plates and stimulated with 100 ng/ml LPS (Sigma) in RPMI without SFB, for 8 h at 37° C.
After incubation, cells were fixed in methanol at −20° C. for 10 min, and processed for indirect immunofluorescence (IFI) with antibodies directed against the glycoprotein D (gD) of HSV-1 and/or the p65 subunit of NF-κB. After three washes with PBS, the coverslips were inverted on a drop of a 1/100 dilution of the first antibody, mouse monoclonal anti-gD and/or rabbit polyclonal anti p65 (Santa Cruz Biotechnology) and incubated for 30 min at 37° C., and then subjected to three additional washes with PBS. […]
The images obtained with a 40× magnification were imported into NIH Image J 1.34s program (designed by Wayne Rasband, NIMH, Bethesda). […] We analyzed the total and nuclear fluorescence of the individual cells and a mean fluorescence density was obtained for each. To compare the distribution of fluorescence within the cell, the results were analyzed in a spreadsheet (Excel®). The total fluorescence intensity or nuclear density was calculated as the total or nuclear average per total or nuclear area, respectively. Then, we calculated the percentage of nuclear intensity or the percentage of nuclear intensity with respect to the total intensity for each cell. […]

TNF-α [5] = experiment: TNF-α secretion in LPS-activated macrophages; type: cell-based; settings: Macrophage, read-out: inhibitory concentration 50% (IC50), TNF-α secretion

CC[C@@H](C(C)C)[C@H](O)[C@@H](O)[C@@H](C)[C@H]1CC[C@H]2[C@@H]3CCC4=CC(=O)C=C[C@]4(C)[C@H]3CC[C@]12C [Compound 2, (22S,23S)-22,23-dihydroxystigmasta-1,4-dien-3-one]
formation of capillary tube like structures (HUVEC cells): showed inhibitory activity

CC[C@@H](C(C)C)[C@H](O)[C@@H](O)[C@@H](C)[C@H]1CC[C@H]2[C@@H]3CC(=O)[C@@]4(O)C[C@@H](Br)CC[C@]4(C)[C@H]3CC[C@]12C [Compound 6b, (22S,23S)-3β-bromo-5α,22,23-trihydroxystigmastan-6-one]
production of TNF-α (TNF-α [1]): hinders
secretion of IL-6 (IL-6 [2]): modulates
anti-HSV-1 activity in vivo (HSV-1): does not exert an anti-HSV-1 activity in vivo
incidence of HSK (HSV-1): significantly decreases
secretion of TNF-α (TNF-α [3]): modulates

CC[C@@H](C(C)C)[C@H](O)[C@@H](O)[C@@H](C)[C@H]1CCC2C3C[C@H](F)C4=CC(=O)CC[C@]4(C)C3CC[C@@]21C (stereo partly shown) [Compound III]
formation of capillary tube like structures (HUVEC cells): develop the formation of capillary tube-like structures in same manner than control cells without treatment
antiangiogenic activity in the tube-like formation assay in HUVEC cells (HUVEC cells): not present

CC[C@@H](C(C)C)[C@H](O)[C@@H](O)[C@@H](C)[C@H]1CCC2C3C[C@H](F)C4=CC(=O)C=C[C@]4(C)C3CC[C@@]21C (stereo partly shown) [Compound IV]
formation of capillary tube like structures (HUVEC cells): develop the formation of capillary tube-like structures in same manner than control cells without treatment
antiangiogenic activity in the tube-like formation assay in HUVEC cells (HUVEC cells): not present

C[C@@H]1C[C@H]2[C@@H]3CCC4=CC(=O)C=C[C@]4(C)[C@@]3(F)[C@@H](O)C[C@]2(C)[C@@]1(O)C(=O)CO [DEX, Dexamethasone, reference compound]
IL-6 level (IL-6 [4]): 637.1 ± 3.8 pg/mL
percentage of cells positive for NF-κB translocation to the nucleus (NF-κB p65 subunit): 100%
IC50 (TNF-α [5]): 48 µM
